The values that follow come from patent US20240124417A1, “COMPOUNDS USEFUL AS IMMUNOMODULATORS” (Bristol-Myers Squibb Company, priority 2019, published 2024).

Broadly, the IC50 is the concentration needed to halve the response being measured. A higher IC50 goes with weaker potency in that assay.

Structures are written as SMILES.

The target of this experiment is T1, PD-1/PD-L1 (Homo sapiens, UniProt Q9NZQ7).
T1 construct: TVMV protease site linker (C); made in house; host or cells: HEK293T cells
T1 sequence (Q9NZQ7 18-239): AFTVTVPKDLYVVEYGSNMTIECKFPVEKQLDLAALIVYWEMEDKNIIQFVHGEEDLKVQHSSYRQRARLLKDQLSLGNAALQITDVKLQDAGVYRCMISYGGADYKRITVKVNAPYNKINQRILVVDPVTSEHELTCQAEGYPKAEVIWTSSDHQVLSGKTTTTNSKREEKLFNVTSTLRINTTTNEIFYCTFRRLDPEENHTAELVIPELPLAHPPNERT
Briefly: PD-1/PD-L1 Homogenous Time-Resolved Fluorescence (HTRF) binding assay. Conditions: PD-L1-His 10 nM, PD-1-Ig 20 nM. Put shortly:
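Inhibitors pre-incubated 15 min with PD-L1-His extracellular domain (10 nM final) in dPBS with 0.1% BSA and 0.05% Tween-20, then PD-1-Ig (20 nM final) added for a further 15 min. Read-out by HTRF with europium cryptate anti-Ig (1 nM) and APC anti-His (20 nM). Related pairs: PD-1-Ig/PD-L2-His (20/5 nM), CD80-His/PD-L1-Ig (100/10 nM).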
Background: TR-FRET usually uses a lanthanide donor and a delayed reading to cut background.

In the case of `Cc1c(COc2cc(OCc3cncc(C#N)c3)c(CNCCc3c[nH]cn3)cc2Cl)cccc1-c1cccc(OCCCN2CC[C@@H](O)C2)c1C` [Example 2532, (R)-5-((2-(((2-(1H-imidazol-4-yl)ethyl)amino)methyl)-4-chloro-5-((3′-(3-(3-hydroxypyrrolidin-1-yl)propoxy)-2,2′-dimethyl-[1,1′-biphenyl]-3-yl)methoxy)phenoxy)methyl)nicotinonitrile], the IC50 was determined as 4.8 nM.
In the case of `Cc1c(COc2cc(OCc3cncc(C#N)c3)c(CN(C)Cc3nccs3)cc2Cl)cccc1-c1cccc(OCCCN2CC[C@@H](O)C2)c1C` [Example 2533, (R)-5-((4-chloro-5-((3′-(3-(3-hydroxypyrrolidin-1-yl)propoxy)-2,2′-dimethyl-[1,1′-biphenyl]-3-yl)methoxy)-2-((methyl(thiazol-2-ylmethyl)amino)methyl)phenoxy)methyl)nicotinonitrile] it was 2.7 nM; in that of `Cc1c(COc2cc(OCc3cncc(C#N)c3)c(CN(C)Cc3cncs3)cc2Cl)cccc1-c1cccc(OCCCN2CC[C@@H](O)C2)c1C` [Example 2534, (R)-5-((4-chloro-5-((3′-(3-(3-hydroxypyrrolidin-1-yl)propoxy)-2,2′-dimethyl-[1,1′-biphenyl]-3-yl)methoxy)-2-((methyl(thiazol-5-ylmethyl)amino)methyl)phenoxy)methyl)nicotinonitrile], 3.4 nM; in that of `Cc1c(COc2cc(OCc3cncc(C#N)c3)c(CN(C)CCc3c[nH]cn3)cc2Cl)cccc1-c1cccc(OCCCN2CC[C@@H](O)C2)c1C` [Example 2535, (R)-5-((2-(((2-(1H-imidazol-4-yl)ethyl)(methyl)amino)methyl)-4-chloro-5-((3′-(3-(3-hydroxypyrrolidin-1-yl)propoxy)-2,2′-dimethyl-[1,1′-biphenyl]-3-yl)methoxy)phenoxy)methyl)nicotinonitrile], 3.9 nM.
In the case of `Cc1c(COc2cc(OCc3cncc(C#N)c3)c(CNCc3cc(C)n(C)n3)cc2Cl)cccc1-c1cccc(OCCCN2CC[C@@H](O)C2)c1C` [Example 2536, (R)-5-((4-chloro-2-((((1,5-dimethyl-1H-pyrazol-3-yl)methyl)amino)methyl)-5-((3′-(3-(3-hydroxypyrrolidin-1-yl)propoxy)-2,2′-dimethyl-[1,1′-biphenyl]-3-yl)methoxy)phenoxy)methyl)nicotinonitrile] it was 7.4 nM.
Molecule `Cc1c(COc2cc(OCc3cncc(C#N)c3)c(CNCc3cc4ccccn4n3)cc2Cl)cccc1-c1cccc(OCCCN2CC[C@@H](O)C2)c1C` [Example 2537, (R)-5-((4-chloro-5-((3′-(3-(3-hydroxypyrrolidin-1-yl)propoxy)-2,2′-dimethyl-[1,1′-biphenyl]-3-yl)methoxy)-2-(((pyrazolo[1,5-a]pyridin-2-ylmethyl)amino)methyl)phenoxy)methyl)nicotinonitrile] registered an IC50 of 6.5 nM. This IC50 and that of the molecule before are within 1.5-fold of each other.
In the case of `Cc1c(COc2cc(OCc3cncc(C#N)c3)c(CNCc3cc(-c4ccccc4)on3)cc2Cl)cccc1-c1cccc(OCCCN2CC[C@@H](O)C2)c1C` [Example 2538, (R)-5-((4-chloro-5-((3′-(3-(3-hydroxypyrrolidin-1-yl)propoxy)-2,2′-dimethyl-[1,1′-biphenyl]-3-yl)methoxy)-2-((((5-phenylisoxazol-3-yl)methyl)amino)methyl)phenoxy)methyl)nicotinonitrile] it was 43.8 nM; in that of `Cc1c(COc2cc(OCc3cncc(C#N)c3)c(CNCc3cocn3)cc2Cl)cccc1-c1cccc(OCCCN2CC[C@@H](O)C2)c1C` [Example 2539, (R)-5-((4-chloro-5-((3′-(3-(3-hydroxypyrrolidin-1-yl)propoxy)-2,2′-dimethyl-[1,1′-biphenyl]-3-yl)methoxy)-2-(((oxazol-4-ylmethyl)amino)methyl)phenoxy)methyl)nicotinonitrile], 0.7 nM.
In the case of `Cc1nc(CNCc2cc(Cl)c(OCc3cccc(-c4cccc(OCCCN5CC[C@@H](O)C5)c4C)c3C)cc2OCc2cncc(C#N)c2)no1` [Example 2540, (R)-5-((4-chloro-5-((3′-(3-(3-hydroxypyrrolidin-1-yl)propoxy)-2,2′-dimethyl-[1,1′-biphenyl]-3-yl)methoxy)-2-((((5-methyl-1,2,4-oxadiazol-3-yl)methyl)amino)methyl)phenoxy)methyl)nicotinonitrile] it was 3.1 nM; in that of `Cc1c(COc2cc(OCc3cncc(C#N)c3)c(CN(C)Cc3cc(C)n(C)n3)cc2Cl)cccc1-c1cccc(OCCCN2CC[C@@H](O)C2)c1C` [Example 2541, (R)-5-((4-chloro-2-((((1,5-dimethyl-1H-pyrazol-3-yl)methyl)(methyl)amino)methyl)-5-((3′-(3-(3-hydroxypyrrolidin-1-yl)propoxy)-2,2′-dimethyl-[1,1′-biphenyl]-3-yl)methoxy)phenoxy)methyl)nicotinonitrile], 3.9 nM; in that of `Cc1c(COc2cc(OCc3cncc(C#N)c3)c(CN(C)Cc3cc4ccccn4n3)cc2Cl)cccc1-c1cccc(OCCCN2CC[C@@H](O)C2)c1C` [Example 2542, (R)-5-((4-chloro-5-((3′-(3-(3-hydroxypyrrolidin-1-yl)propoxy)-2,2′-dimethyl-[1,1′-biphenyl]-3-yl)methoxy)-2-((methyl(pyrazolo[1,5-a]pyridin-2-ylmethyl)amino)methyl)phenoxy)methyl)nicotinonitrile], 3.9 nM.
In the case of `Cc1c(COc2cc(OCc3cncc(C#N)c3)c(CN(C)Cc3cc(-c4ccccc4)on3)cc2Cl)cccc1-c1cccc(OCCCN2CC[C@@H](O)C2)c1C` [Example 2543, (R)-5-((4-chloro-5-((3′-(3-(3-hydroxypyrrolidin-1-yl)propoxy)-2,2′-dimethyl-[1,1′-biphenyl]-3-yl)methoxy)-2-((methyl((5-phenylisoxazol-3-yl)methyl)amino)methyl)phenoxy)methyl)nicotinonitrile] it was 192 nM; in that of `Cc1c(COc2cc(OCc3cncc(C#N)c3)c(CN(C)Cc3cocn3)cc2Cl)cccc1-c1cccc(OCCCN2CC[C@@H](O)C2)c1C` [Example 2544, (R)-5-((4-chloro-5-((3′-(3-(3-hydroxypyrrolidin-1-yl)propoxy)-2,2′-dimethyl-[1,1′-biphenyl]-3-yl)methoxy)-2-((methyl(oxazol-4-ylmethyl)amino)methyl)phenoxy)methyl)nicotinonitrile], 1.6 nM.
For the molecule `Cc1nc(CN(C)Cc2cc(Cl)c(OCc3cccc(-c4cccc(OCCCN5CC[C@@H](O)C5)c4C)c3C)cc2OCc2cncc(C#N)c2)no1` [Example 2545, (R)-5-((4-chloro-5-((3′-(3-(3-hydroxypyrrolidin-1-yl)propoxy)-2,2′-dimethyl-[1,1′-biphenyl]-3-yl)methoxy)-2-((methyl((5-methyl-1,2,4-oxadiazol-3-yl)methyl)amino)methyl)phenoxy)methyl)nicotinonitrile], the IC50 turned out to be 11.9 nM. Against the preceding molecule, the IC50 is about 7.4-fold higher.
With `Cc1c(COc2cc(OCc3cncc(C#N)c3)c(CNCc3ncco3)cc2Cl)cccc1-c1cccc(OCCCN2CC[C@@H](O)C2)c1C` [Example 2546, (R)-5-((4-chloro-5-((3′-(3-(3-hydroxypyrrolidin-1-yl)propoxy)-2,2′-dimethyl-[1,1′-biphenyl]-3-yl)methoxy)-2-(((oxazol-2-ylmethyl)amino)methyl)phenoxy)methyl)nicotinonitrile] the figure was 1.8 nM.
